# In patent US20030237103A1, “Methods and compositions for pharmacological and toxicological evaluation of test agents” (priority 2002, published 2003):
# Tested on: Panel, parental and outbred (CD-IGS) rat strains
# Test: Clinical chemistry endpoints of gentamicin-treated vs. vehicle rats
# Conditions: for T-test value CREAT / T-test value GGT / T-test value GLOB / T-test value GLU / T-test value K / T-test value NA / T-test value PHOS / T-test value TBIL / T-test value TP / T-test value TRIG / T-test value ALB / T-test value ALP / T-test value ALT / T-test value ANION GAP / T-test value AST / T-test value BICARB / T-test value BUN / T-test value CA / T-test value CHOL: 240 mg/Kg gentamicin vs. vehicle
# Excerpt: Percent increase is defined as[(mean drug—mean vehicle control)/mean vehicle control×100] for each strain tested. The number of animals tested in each group is noted below the strain designation in parenthesis as #drug treated animals per #vehicle treated animals.
# We sought to maximize the range of genetic susceptibility to the adverse drug effects across the strains.
# [1] = Panel (all 6 hybrid strains together)
# [2] = Parental Group (all 4 parents combined)
substance,measurement,setting,value
gentamicin,T-test value CREAT,LEWxF344 rats,0.014
same,T-test value GGT,LEWxF344 rats,0.351
same,T-test value GLOB,LEWxF344 rats,0.080
same,T-test value GLU,LEWxF344 rats,0.455
same,T-test value K,LEWxF344 rats,0.216
same,T-test value NA,LEWxF344 rats,0.227
same,T-test value PHOS,LEWxF344 rats,0.652
same,T-test value TBIL,LEWxF344 rats,0.560
same,T-test value TP,LEWxF344 rats,1.000
same,T-test value TRIG,LEWxF344 rats,0.129
same,increase in BUN,"LEW×F344, BN, F344, LEW and LEW×Bn strains, gentamicin treated",2-3 fold
same,T-test value ALB,[1],0.000
same,T-test value ALP,[1],0.300
same,T-test value ALT,[1],0.440
same,T-test value ANION GAP,[1],0.802
same,T-test value AST,[1],0.026
same,T-test value BICARB,[1],0.204
same,T-test value BUN,[1],0.000
same,T-test value CA,[1],0.004
same,T-test value CHOL,[1],0.404
same,T-test value CREAT,[1],0.000
same,T-test value GGT,[1],0.078
same,T-test value GLOB,[1],0.024
same,T-test value GLU,[1],0.497
same,T-test value K,[1],0.032
same,T-test value NA,[1],0.064
same,T-test value PHOS,[1],0.091
same,T-test value TBIL,[1],0.244
same,T-test value TP,[1],0.036
same,T-test value TRIG,[1],0.000
same,T-test value ALB,[2],0.000
same,T-test value ALP,[2],0.037
same,T-test value ALT,[2],0.047
same,T-test value ANION GAP,[2],0.046
same,T-test value AST,[2],0.040
same,T-test value BICARB,[2],0.068
same,T-test value BUN,[2],0.000
same,T-test value CA,[2],0.018
same,T-test value CHOL,[2],0.327
same,T-test value CREAT,[2],0.000
same,T-test value GGT,[2],0.083
same,T-test value GLOB,[2],0.638
same,T-test value GLU,[2],0.244
same,T-test value K,[2],0.486
same,T-test value NA,[2],0.000
same,T-test value PHOS,[2],0.016
same,T-test value TBIL,[2],0.141
same,T-test value TP,[2],0.002
same,T-test value TRIG,[2],0.000
same,T-test value ALB,WKY rats,0.034
same,T-test value ALP,WKY rats,0.003
same,T-test value ALT,WKY rats,0.346
same,T-test value ANION GAP,WKY rats,0.137
same,T-test value AST,WKY rats,0.244
same,T-test value BICARB,WKY rats,0.229
same,T-test value BUN,WKY rats,0.264
same,T-test value CA,WKY rats,0.969
same,T-test value CHOL,WKY rats,0.232
same,T-test value CREAT,WKY rats,0.156
same,T-test value GLOB,WKY rats,0.358
same,T-test value GLU,WKY rats,0.742
same,T-test value K,WKY rats,0.881
same,T-test value NA,WKY rats,0.134
same,T-test value PHOS,WKY rats,0.014
same,T-test value TBIL,WKY rats,0.052
same,T-test value TP,WKY rats,0.254
same,T-test value TRIG,WKY rats,0.010
same,T-test value ALB,WKYxBN rats,0.080
same,T-test value ALP,WKYxBN rats,0.008
same,T-test value ALT,WKYxBN rats,0.172
same,T-test value ANION GAP,WKYxBN rats,0.887
same,T-test value AST,WKYxBN rats,0.575
same,T-test value BICARB,WKYxBN rats,0.923
same,T-test value BUN,WKYxBN rats,0.016
same,T-test value CA,WKYxBN rats,0.175
same,T-test value CHOL,WKYxBN rats,0.610
same,T-test value CREAT,WKYxBN rats,0.026
same,T-test value GGT,WKYxBN rats,0.189
same,T-test value GLOB,WKYxBN rats,0.361
same,T-test value GLU,WKYxBN rats,1.000
same,T-test value K,WKYxBN rats,0.114
same,T-test value NA,WKYxBN rats,0.401
same,T-test value PHOS,WKYxBN rats,0.118
same,T-test value TBIL,WKYxBN rats,0.020
same,T-test value TP,WKYxBN rats,0.070
same,T-test value TRIG,WKYxBN rats,0.032
same,T-test value ALB,WKYxF344 rats,0.002
same,T-test value ALP,WKYxF344 rats,0.000
same,T-test value ALT,WKYxF344 rats,0.530
same,T-test value ANION GAP,WKYxF344 rats,0.434
same,T-test value AST,WKYxF344 rats,0.596
same,T-test value BICARB,WKYxF344 rats,0.318
same,T-test value BUN,WKYxF344 rats,0.005
same,T-test value CA,WKYxF344 rats,0.135
same,T-test value CHOL,WKYxF344 rats,0.867
same,T-test value CREAT,WKYxF344 rats,0.043
same,T-test value GLOB,WKYxF344 rats,0.104
same,T-test value GLU,WKYxF344 rats,0.375
same,T-test value K,WKYxF344 rats,0.270
same,T-test value NA,WKYxF344 rats,0.128
same,T-test value PHOS,WKYxF344 rats,0.010
same,T-test value TBIL,WKYxF344 rats,0.002
same,T-test value TP,WKYxF344 rats,0.125
same,T-test value TRIG,WKYxF344 rats,0.007
same,T-test value ALB,WKYxLEW rats,0.001
same,T-test value ALP,WKYxLEW rats,0.001
same,T-test value ALT,WKYxLEW rats,0.584
same,T-test value ANION GAP,WKYxLEW rats,0.429
same,T-test value AST,WKYxLEW rats,0.677
same,T-test value BICARB,WKYxLEW rats,0.085
same,T-test value BUN,WKYxLEW rats,0.000
same,T-test value CA,WKYxLEW rats,0.092
same,T-test value CHOL,WKYxLEW rats,0.608
same,T-test value CREAT,WKYxLEW rats,0.000
same,T-test value GLOB,WKYxLEW rats,0.365
same,T-test value GLU,WKYxLEW rats,0.001
same,T-test value K,WKYxLEW rats,0.689
same,T-test value NA,WKYxLEW rats,0.514
same,T-test value PHOS,WKYxLEW rats,0.123
same,T-test value TBIL,WKYxLEW rats,0.685
same,T-test value TP,WKYxLEW rats,0.000
same,T-test value TRIG,WKYxLEW rats,0.015
